The values that follow come from patent US11590139B2, “Substituted aminopurine compounds, compositions thereof, and methods of treatment therewith” (Signal Pharmaceuticals, LLC, priority 2014, dated 2023).

The first assay relates to Lox-IMVI melanoma cell line. The assay is described as follows: Lox-IMVI anti-proliferative assay (growth inhibition, Cell Titer-Glo). The class given is cell-based, human. Particulars: Homo sapiens; IC50 activity level in the cell-based Lox-IMVI anti-proliferative assay; read-out: Activity. The method, boiled down: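 Cells grown in RPMI + 10% FBS were exposed to compound at 0.5 nM to 10 μM (10-point, 3-fold dilution, duplicate, 0.2% DMSO final) for 72 h at 37 °C, 5% CO2. Viability was read by ATP luminescence at t0 and 72 h. IC50 came from a four-parameter logistic fit normalized to DMSO control.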
With `CC[C@H](C)Nc1ncc2nc(Nc3c(F)cc(F)cc3Cl)n([C@H]3CC[C@@H](C(N)=O)CC3)c2n1` [Example 338, (1R,4s)-4-(2-(sec-butylamino)-8-(2-chloro-4,6-difluorophenylamino)-9H-purin-9-yl)cyclohexanecarboxamide], the IC50 lay within 500 to 1000 nM.
Turning to `NC(=O)[C@H]1CC[C@@H](n2c(Nc3ccc(Cl)c(Cl)c3F)nc3cnc(NC4CCOCC4)nc32)CC1` [Example 112, (1s,4s)-4-(8-(3,4-dichloro-2-fluorophenylamino)-2-(tetrahydro-2H-pyran-4-ylamino)-9H-purin-9-yl)cyclohexanecarboxamide], the IC50 lay within 250 to 500 nM.
As to `NC(=O)[C@H]1CC[C@@H](n2c(Nc3c(F)cc(F)cc3F)nc3cnc(NC4CCOCC4)nc32)CC1` [Example 11], the IC50 was under 250 nM.
As to `CC[C@@H](CO)Nc1ncc2nc(Nc3c(Cl)cc(Cl)cc3Cl)n([C@H]3CC[C@@H](C(N)=O)CC3)c2n1` [Example 154, (1R,4s)-4-(2-((S)-1-hydroxybutan-2-ylamino)-8-(2,4,6-trichlorophenylamino)-9H-purin-9-yl)cyclohexanecarboxamide], the IC50 was over 1000 nM.
For `NC(=O)[C@H]1CC[C@@H](n2c(Nc3c(Cl)cc(Cl)cc3Cl)nc3cnc(N[C@@H]4CCOC4)nc32)CC1` [Example 76, (1S,4s)-4-(2-((R)-tetrahydrofuran-3-ylamino)-8-(2,4,6-trichlorophenylamino)-9H-purin-9-yl)cyclohexanecarboxamide], the IC50 lay in the range of 250 to 500 nM.
For `NC(=O)[C@H]1CC[C@@H](n2c(Nc3ccc(Cl)c(F)c3Cl)nc3cnc(NC4CCOCC4)nc32)CC1` [Example 82, (1s,4s)-4-(8-(2,4-dichloro-3-fluorophenylamino)-2-(tetrahydro-2H-pyran-4-ylamino)-9H-purin-9-yl)cyclohexanecarboxamide], the IC50 was over 1000 nM.
`NC(=O)[C@H]1CC[C@@H](n2c(Nc3ccc(F)c(F)c3F)nc3cnc(NC4CCOCC4)nc32)CC1` [Example 66, (1s,4s)-4-(2-(tetrahydro-2H-pyran-4-ylamino)-8-(2,3,4-trifluorophenylamino)-9H-purin-9-yl)cyclohexanecarboxamide]: the IC50 is 500 to 1000 nM.
Take `NC(=O)[C@H]1CC[C@@H](n2c(Nc3c(F)cc(F)cc3F)nc3cnc(N[C@H]4CCOC[C@@H]4F)nc32)CC1` [Example 277, (1R,4s)-4-(2-((3R,4S)-3-fluorotetrahydro-2H-pyran-4-ylamino)-8-(2,4,6-trifluorophenylamino)-9H-purin-9-yl)cyclohexanecarboxamide]: the IC50 is over 1000 nM.
On the same count and under the same terms, for `NC(=O)[C@H]1CC[C@@H](n2c(Nc3c(F)cc(F)cc3Cl)nc3cnc(N[C@@H]4CCOC4)nc32)CC1` [Example 199, (1S,4s)-4-(8-(2-chloro-4,6-difluorophenylamino)-2-((R)-tetrahydrofuran-3-ylamino)-9H-purin-9-yl)cyclohexanecarboxamide] the value was 500 to 1000 nM; for `CC[C@H](CO)Nc1ncc2nc(Nc3c(Cl)cc(F)cc3Cl)n([C@H]3CC[C@@H](C(N)=O)CC3)c2n1` [Example 126, (1S,4s)-4-(8-(2,6-dichloro-4-fluorophenylamino)-2-((R)-1-hydroxybutan-2-ylamino)-9H-purin-9-yl)cyclohexanecarboxamide], over 1000 nM; for `CC[C@H](C)Nc1ncc2nc(Nc3c(F)cccc3F)n([C@H]3CC[C@@H](C(N)=O)CC3)c2n1` [Example 335, (1R,4s)-4-(2-(sec-butylamino)-8-(2,6-difluorophenylamino)-9H-purin-9-yl)cyclohexanecarboxamide], over 1000 nM.
On to `NC(=O)[C@H]1CC[C@@H](n2c(Nc3c(F)cc(F)cc3Cl)nc3cnc(N[C@H]4CCC[C@@H](O)C4)nc32)CC1` [Example 371, (1R,4s)-4-(8-(2-chloro-4,6-difluorophenylamino)-2-((1S,3R)-3-hydroxycyclohexylamino)-9H-purin-9-yl)cyclohexanecarboxamide], for which the IC50 is over 1000 nM.
Take `NC(=O)[C@H]1CC[C@@H](n2c(Nc3c(Cl)cc(F)cc3Cl)nc3cnc(N[C@@H]4CCC[C@H](O)C4)nc32)CC1` [Example 354, (1S,4s)-4-(8-(2,6-dichloro-4-fluorophenylamino)-2-((1R,3S)-3-hydroxycyclohexylamino)-9H-purin-9-yl)cyclohexanecarboxamide]: the IC50 lay in the range of 500 to 1000 nM.
On the same count and under the same terms, the same measure for `CC1(C)CC[C@@H](Nc2ncc3nc(Nc4c(F)cc(F)cc4F)n([C@H]4CC[C@@H](C(N)=O)CC4)c3n2)C[C@H]1O` [Example 381, (1S,4s)-4-(2-((1R,3R)-3-hydroxy-4,4-dimethylcyclohexylamino)-8-(2,4,6-trifluorophenylamino)-9H-purin-9-yl)cyclohexanecarboxamide]: over 1000 nM.

The same assay, now with this note: Homo sapiens; Lox-IMVI anti-proliferative assay, IC50 activity level; read-out: Activity.
In the case of `C[C@@H]1COCC[C@@H]1Nc1ncc2nc(Nc3c(Cl)cc(Cl)cc3Cl)n([C@H]3CC[C@@H](C(N)=O)CC3)c2n1` [Example 502, (1R,4s)-4-(2-((3S,4S)-3-methyltetrahydro-2H-pyran-4-ylamino)-8-(2,4,6-trichlorophenylamino)-9H-purin-9-yl)cyclohexanecarboxamide], the IC50 was 250 to 500 nM.
Take `C[C@@H]1COCC[C@@H]1Nc1ncc2nc(Nc3c(F)cc(F)cc3F)n([C@H]3CC[C@@H](C(N)=O)CC3)c2n1` [Example 511, (1R,4s)-4-(2-((3S,4S)-3-methyltetrahydro-2H-pyran-4-ylamino)-8-(2,4,6-trifluorophenylamino)-9H-purin-9-yl)cyclohexanecarboxamide]: the IC50 lay in the range of 500 to 1000 nM.
On to `C[C@]1(C(N)=O)CC[C@H](n2c(Nc3c(Cl)cc(C(F)(F)F)cc3Cl)nc3cnc(NC4CCCC4)nc32)CC1` [Example 488, (1r,4r)-4-(2-(cyclopentylamino)-8-(2,6-dichloro-4-(trifluoromethyl)phenylamino)-9H-purin-9-yl)-1-methylcyclohexanecarboxamide], for which the IC50 was over 1000 nM.
Consider `C[C@@H]1COCC[C@H]1Nc1ncc2nc(Nc3c(Cl)cc(C#N)cc3Cl)n([C@H]3CC[C@@H](C(N)=O)CC3)c2n1` [Example 495, (1S,4s)-4-(8-(2,6-dichloro-4-cyanophenylamino)-2-((3S,4R)-3-methyltetrahydro-2H-pyran-4-ylamino)-9H-purin-9-yl)cyclohexanecarboxamide], for which the IC50 was under 250 nM.

Still in this assay, the particulars now being: Homo sapiens; Lox-IMVI melanoma cell line, anti-proliferative assay; read-out: Activity (IC50 activity level).
Turning to `N#Cc1cc(F)c(Nc2nc3cnc(NC[C@@H]4CCCC[C@@H]4O)nc3n2[C@H]2CC[C@@H](C(N)=O)CC2)c(Cl)c1` [Example 658, (1R,4s)-4-(8-(2-chloro-4-cyano-6-fluorophenylamino)-2-(((1S,2S)-2-hydroxycyclohexyl)methylamino)-9H-purin-9-yl)cyclohexanecarboxamide], the IC50 was over 1000 nM.
As for `NC(=O)[C@H]1CC[C@@H](n2c(Nc3c(F)cc(Cl)cc3F)nc3cnc(N[C@H]4CCOC[C@H]4F)nc32)CC1` [Example 672, (1R,4s)-4-(8-(4-chloro-2,6-difluorophenylamino)-2-((3S,4S)-3-fluorotetrahydro-2H-pyran-4-ylamino)-9H-purin-9-yl)cyclohexanecarboxamide], the IC50 was under 250 nM.
Take `C[C@]1(C(N)=O)CC[C@@H](n2c(Nc3c(F)cc(Cl)cc3Cl)nc3cnc(NC4CCOCC4)nc32)CC1` [Example 674, (1s,4s)-4-(8-(2,4-dichloro-6-fluorophenylamino)-2-(tetrahydro-2H-pyran-4-ylamino)-9H-purin-9-yl)-1-methylcyclohexanecarboxamide]: the IC50 was under 250 nM.
Consider `C[C@]1(C(N)=O)CC[C@@H](n2c(Nc3c(F)cc(F)cc3F)nc3cnc(N[C@H]4CCC[C@@H](O)C4)nc32)CC1` [Example 625, (1R,4s)-4-(2-((1S,3R)-3-hydroxycyclohexylamino)-8-(2,4,6-trifluorophenylamino)-9H-purin-9-yl)-1-methylcyclohexanecarboxamide], for which the IC50 is over 1000 nM.
The same measure, in the same setting: for `NC(=O)[C@H]1CC[C@@H](n2c(Nc3c(Cl)cc(C(F)(F)F)cc3Cl)nc3cnc(N[C@@H]4CCCN(Cc5ccccc5)C4)nc32)CC1` [Example 754, (1S,4s)-4-(2-((R)-1-benzylpiperidin-3-ylamino)-8-(2,6-dichloro-4-(trifluoromethyl)phenylamino)-9H-purin-9-yl)cyclohexanecarboxamide] the value was over 1000 nM; for `C[C@]1(C(N)=O)CC[C@@H](n2c(Nc3c(F)cc(F)cc3F)nc3cnc(N[C@@H]4CC[C@@H](O)C4)nc32)CC1` [Example 634, (1S,4s)-4-(2-((1R,3R)-3-hydroxycyclopentylamino)-8-(2,4,6-trifluorophenylamino)-9H-purin-9-yl)-1-methylcyclohexanecarboxamide], 500 to 1000 nM; for `C[C@]1(C(N)=O)CC[C@@H](n2c(Nc3c(F)cc(F)cc3Cl)nc3cnc(N[C@H]4CCOC[C@H]4F)nc32)CC1` [Example 724, (1R,4s)-4-(8-(2-chloro-4,6-difluorophenylamino)-2-((3S,4S)-3-fluorotetrahydro-2H-pyran-4-ylamino)-9H-purin-9-yl)-1-methylcyclohexanecarboxamide], under 250 nM.
As to `Cc1ccc(S(=O)(=O)N2CCC[C@@H](Nc3ncc4nc(Nc5c(Cl)cc(Cl)cc5Cl)n([C@H]5CC[C@@H](C(N)=O)CC5)c4n3)C2)cc1` [Example 788, (1S,4s)-4-(2-((R)-1-tosylpiperidin-3-ylamino)-8-(2,4,6-trichlorophenylamino)-9H-purin-9-yl)cyclohexanecarboxamide], the IC50 is over 1000 nM.
On to `C[C@]1(C(N)=O)CC[C@@H](n2c(Nc3c(F)cc(Cl)cc3Cl)nc3cnc(N[C@H]4CCC[C@H](O)C4)nc32)CC1` [Example 612, (1R,4s)-4-(8-(2,4-dichloro-6-fluorophenylamino)-2-((1S,3S)-3-hydroxycyclohexylamino)-9H-purin-9-yl)-1-methylcyclohexanecarboxamide], for which the IC50 was under 250 nM.
